# Measurements from the supplement of paper PMC10307832.
# Tests used:
# Test in all cases: relative viability (nuclei count vs DMSO), 5 days (fraction); higher = more cells survive
# RERF-LC-KJ = test system: RERF-LC-KJ
# How it was run: (§1)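 A single step with final 0.05% Triton X-100, 1% formaldehyde and 1 ug/ml Hoechst fixed the cells and stained nuclei 5 days after treatment. Lung cancer cell lines in 1536-well plates had been treated by pin tool the day after seeding with one drug alone or a fixed anchor-drug dose plus five library-drug doses (not always all listed) in √10 steps, and nuclei were counted on 4× images. Relative viability is the ratio of nuclei in treated wells to nuclei in vehicle wells, taken as the median of duplicate plates.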
# NCI-H1355 = test system: NCI-H1355
# How it was run: as §1
# NCI-H1563 = test system: NCI-H1563
# How it was run: as §1
# NCI-H2228 = test system: NCI-H2228
# How it was run: as §1
# LCLC-97TM1 = test system: LCLC-97TM1
# How it was run: as §1
# NCI-H1734 = test system: NCI-H1734
# How it was run: as §1
# NCI-H661 = test system: NCI-H661
# How it was run: as §1
# PC-14 = test system: PC-14
# How it was run: as §1
# NCI-H520 = test system: NCI-H520
# How it was run: as §1
# NCI-H1975 = test system: NCI-H1975
# How it was run: as §1
# HCC-827 = test system: HCC-827
# How it was run: as §1
# EKVX = test system: EKVX
# How it was run: as §1
# PC-3 [JPC-3] = test system: PC-3 [JPC-3]
# How it was run: as §1
# NCI-H322M = test system: NCI-H322M
# How it was run: as §1
# HCC-15 = test system: HCC-15
# How it was run: as §1
# CAL-12T = test system: CAL-12T
# How it was run: as §1
# NCI-H1650 = test system: NCI-H1650
# How it was run: as §1
# NCI-H1755 = test system: NCI-H1755
# How it was run: as §1
# NCI-H2405 = test system: NCI-H2405
# How it was run: as §1
# H3255 = test system: H3255
# How it was run: as §1
smiles,measurement,setting,value
COc1nc(C)cnc1NS(=O)(=O)c1cccnc1-c1ccc(-c2nnco2)cc1 [Zibotentan] + CC(C)C[C@H](NC(=O)[C@H](Cc1ccccc1)NC(=O)c1cnccn1)B(O)O [Bortezomib] (partner 0.002 µM),relative viability,RERF-LC-KJ; first compound 0.08 µM,1.04
same,relative viability,RERF-LC-KJ; first compound 0.253 µM,1.1
same,relative viability,RERF-LC-KJ; first compound 0.8 µM,1.09
same,relative viability,RERF-LC-KJ; first compound 2.53 µM,0.998
same,relative viability,NCI-H1355; first compound 0.08 µM,1.2
same,relative viability,NCI-H1355; first compound 0.253 µM,1.36
same,relative viability,NCI-H1355; first compound 0.8 µM,1.05
same,relative viability,NCI-H1355; first compound 2.53 µM,1.24
same,relative viability,NCI-H1563; first compound 0.08 µM,0.932
same,relative viability,NCI-H1563; first compound 0.253 µM,0.648
same,relative viability,NCI-H1563; first compound 0.8 µM,0.881
same,relative viability,NCI-H1563; first compound 2.53 µM,0.905
same,relative viability,NCI-H2228; first compound 0.08 µM,0.801
same,relative viability,NCI-H2228; first compound 0.253 µM,0.821
same,relative viability,NCI-H2228; first compound 0.8 µM,0.97
same,relative viability,NCI-H2228; first compound 2.53 µM,1.07
same,relative viability,LCLC-97TM1; first compound 0.08 µM,0.631
same,relative viability,LCLC-97TM1; first compound 0.8 µM,0.657
same,relative viability,LCLC-97TM1; first compound 2.53 µM,0.688
same,relative viability,NCI-H1734; first compound 0.08 µM,1.1
same,relative viability,NCI-H1734; first compound 0.253 µM,0.894
same,relative viability,NCI-H1734; first compound 0.8 µM,0.972
same,relative viability,NCI-H1734; first compound 2.53 µM,1
same,relative viability,NCI-H661; first compound 0.08 µM,1.02
same,relative viability,NCI-H661; first compound 0.253 µM,0.656
same,relative viability,NCI-H661; first compound 0.8 µM,0.89
same,relative viability,NCI-H661; first compound 2.53 µM,0.841
same,relative viability,PC-14; first compound 0.08 µM,0.872
same,relative viability,PC-14; first compound 0.253 µM,0.922
same,relative viability,PC-14; first compound 0.8 µM,0.897
same,relative viability,PC-14; first compound 2.53 µM,0.861
same,relative viability,NCI-H520; first compound 0.08 µM,0.541
same,relative viability,NCI-H520; first compound 0.253 µM,0.532
same,relative viability,NCI-H520; first compound 0.8 µM,0.575
same,relative viability,NCI-H520; first compound 2.53 µM,0.821
same,relative viability,NCI-H1975; first compound 0.08 µM,0.378
same,relative viability,NCI-H1975; first compound 0.253 µM,0.293
same,relative viability,NCI-H1975; first compound 0.8 µM,0.411
same,relative viability,NCI-H1975; first compound 2.53 µM,0.419
same,relative viability,HCC-827; first compound 0.08 µM,1.08
same,relative viability,HCC-827; first compound 0.253 µM,0.994
same,relative viability,HCC-827; first compound 0.8 µM,1.05
same,relative viability,HCC-827; first compound 2.53 µM,1.04
same,relative viability,EKVX; first compound 0.08 µM,1.13
same,relative viability,EKVX; first compound 0.253 µM,1.17
same,relative viability,EKVX; first compound 0.8 µM,1.11
same,relative viability,EKVX; first compound 2.53 µM,1.07
same,relative viability,PC-3 [JPC-3]; first compound 0.08 µM,0.906
same,relative viability,PC-3 [JPC-3]; first compound 0.253 µM,0.838
same,relative viability,PC-3 [JPC-3]; first compound 0.8 µM,0.839
same,relative viability,PC-3 [JPC-3]; first compound 2.53 µM,0.807
same,relative viability,NCI-H322M; first compound 0.08 µM,1.05
same,relative viability,NCI-H322M; first compound 0.253 µM,1.22
same,relative viability,NCI-H322M; first compound 0.8 µM,1.18
same,relative viability,NCI-H322M; first compound 2.53 µM,1.34
same,relative viability,HCC-15; first compound 0.08 µM,0.99
same,relative viability,HCC-15; first compound 0.253 µM,1.01
same,relative viability,HCC-15; first compound 0.8 µM,0.979
same,relative viability,HCC-15; first compound 2.53 µM,1.09
same,relative viability,CAL-12T; first compound 0.08 µM,0.941
same,relative viability,CAL-12T; first compound 0.8 µM,1.01
same,relative viability,CAL-12T; first compound 2.53 µM,1.01
same,relative viability,NCI-H1650; first compound 0.08 µM,0.209
same,relative viability,NCI-H1650; first compound 0.8 µM,0.198
same,relative viability,NCI-H1650; first compound 2.53 µM,0.194
same,relative viability,NCI-H1755; first compound 0.08 µM,0.945
same,relative viability,NCI-H1755; first compound 0.253 µM,0.952
same,relative viability,NCI-H1755; first compound 0.8 µM,0.968
same,relative viability,NCI-H1755; first compound 2.53 µM,0.97
same,relative viability,NCI-H2405; first compound 0.08 µM,1.02
same,relative viability,NCI-H2405; first compound 0.253 µM,1.05
same,relative viability,NCI-H2405; first compound 0.8 µM,0.991
same,relative viability,NCI-H2405; first compound 2.53 µM,0.963
same,relative viability,H3255; first compound 0.08 µM,0.791
same,relative viability,H3255; first compound 0.253 µM,0.963
same,relative viability,H3255; first compound 0.8 µM,0.996
same,relative viability,H3255; first compound 2.53 µM,0.822
